TGI data for 16 compounds are collected here from PubChem BioAssay (NCI).

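Where inhibition never reached the appropriate level, the endpoint shown equals the highest concentration tested. Otherwise, values were interpolated linearly from a five-concentration, 48-hour dose response in 96-well plates. TGI: total growth inhibition.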

One assay has as its system MALME-3M melanoma. Briefly: growth of human tumour cells (NCI), 48 h.
With `CN(C)c1ccc(-c2c(C#N)c(N)[nH]c(=S)c2C#N)cc1`, the TGI was over 100 µM.

A further assay has as its system NCI-H460 lung. Put plainly: growth of human tumour cells (NCI), 48 h.
As for `CC(C)OP(=O)(OC(C)C)C(C(C)C)N(C)/C(N)=N\C1=NC(C(F)(F)F)(C(F)(F)F)N=C(C(C(F)(F)F)C(F)(F)F)O1` (stereo not given), the TGI was found to be 9.91 µM.

Regarding `O=c1c2cc(S(=O)(=O)Nc3ccccc3Cl)ccc2ncn1NS(=O)(=O)c1ccc(Br)cc1`, the TGI is over 37.5 µM.

Consider `CC1=C(C(=O)Nc2cccc3c2C(=O)NC3=O)CC(C(=O)Nc2cccc3c2C(=O)NC3=O)=C(C)N1`, for which the TGI is over 100 µM.

`CC1C2CC(CC(=O)N2)C1(C)C` (stereo not given) gave a TGI of over 100 µM.

Consider `COc1cc(S(=O)(=O)Nc2ccc(-c3csc(N4C(=O)CSC4c4cccs4)n3)cc2)ccc1Cl` (stereo not given), for which the TGI was 91 µM.

In turn, `C[C@H]1[C@H](C)N(Cc2ccccc2)P(=O)(C(O)/C=C/c2ccccc2)N1Cc1ccccc1` (stereo not given in full) returned a TGI of 10.2 µM.

Compound `NCCCCNCCCN1CC1` registered a TGI of over 100 µM.

`Cc1c2ccncc2cc2c1sc1ccncc12`: the TGI amounted to 4.77 µM.

Take `CCOC(=O)c1nc2ccc(C(F)(F)F)cc2nc1NCc1ccc(Cl)c(Cl)c1`: the TGI is over 100 µM.

On to `Cn1nc(Cc2ccc(Cl)cc2)n(N)c1=O`, for which the TGI was over 100 µM.

In the case of `CCOC(=O)NC(C(F)(F)F)(C(F)(F)F)P(=O)(OC(C)C)OC(C)C`, the TGI was over 100 µM.

Compound `C/C(=N\N)C(CN(C)C)C(c1ccccc1)c1c(O)c2ccccc2oc1=O` (stereo not given) showed a TGI of over 100 µM.

With `CSC1=N[C@H](c2ccccc2)CS1`, the TGI is over 100 µM.

On to `CN(C)c1ccc(-c2c(C#N)c(N)[nH]c(=S)c2C#N)cc1`, for which the TGI was over 100 µM.

Another assay has as its system NCI/ADR-RES ovarian. Put plainly: growth of human tumour cells (NCI), 48 h.
With `O=c1c2cc(S(=O)(=O)Nc3ccccc3Cl)ccc2ncn1NS(=O)(=O)c1ccc(Br)cc1`, the TGI was over 37.5 µM.

`COc1cc(S(=O)(=O)Nc2ccc(-c3csc(N4C(=O)CSC4c4cccs4)n3)cc2)ccc1Cl` (stereo not given) registered a TGI of over 100 µM.

With `C[C@H]1[C@H](C)N(Cc2ccccc2)P(=O)(C(O)/C=C/c2ccccc2)N1Cc1ccccc1` (stereo not given in full), the TGI was over 25 µM.

`CCOC(=O)c1nc2ccc(C(F)(F)F)cc2nc1NCc1ccc(Cl)c(Cl)c1` had a TGI of over 100 µM.

`NCCCNCCCNCCCN` displayed a TGI of over 100 µM.

In turn, `Cn1nc(Cc2ccc(Cl)cc2)n(N)c1=O` gave a TGI of over 100 µM.

Take `CCc1nnc(CC)n1NCCCC(=O)O`: the TGI was over 100 µM.

On to `CCOC(=O)NC(C(F)(F)F)(C(F)(F)F)P(=O)(OC(C)C)OC(C)C`, for which the TGI was over 100 µM.

On to `C/C(=N\N)C(CN(C)C)C(c1ccccc1)c1c(O)c2ccccc2oc1=O` (stereo not given), for which the TGI was over 100 µM.

`CSC1=N[C@H](c2ccccc2)CS1`: the TGI was over 100 µM.

The compound `CN(C)c1ccc(-c2c(C#N)c(N)[nH]c(=S)c2C#N)cc1` came in with a TGI of over 100 µM.

The next assay deals with PC-3 prostate. Put plainly: growth of human tumour cells (NCI), 48 h.
Turning to `CC(C)OP(=O)(OC(C)C)C(C(C)C)N(C)/C(N)=N\C1=NC(C(F)(F)F)(C(F)(F)F)N=C(C(C(F)(F)F)C(F)(F)F)O1` (stereo not given), the TGI worked out at 8.42 µM.

The compound `O=c1c2cc(S(=O)(=O)Nc3ccccc3Cl)ccc2ncn1NS(=O)(=O)c1ccc(Br)cc1` returned a TGI of over 37.5 µM.

Regarding `CC1=C(C(=O)Nc2cccc3c2C(=O)NC3=O)CC(C(=O)Nc2cccc3c2C(=O)NC3=O)=C(C)N1`, the TGI is over 100 µM.

Compound `CC1C2CC(CC(=O)N2)C1(C)C` (stereo not given) yielded a TGI of over 100 µM.

Compound `COc1cc(S(=O)(=O)Nc2ccc(-c3csc(N4C(=O)CSC4c4cccs4)n3)cc2)ccc1Cl` (stereo not given) yielded a TGI of over 100 µM.

For `C[C@H]1[C@H](C)N(Cc2ccccc2)P(=O)(C(O)/C=C/c2ccccc2)N1Cc1ccccc1` (stereo not given in full), the TGI came to 13 µM.

The compound `NCCCCNCCCN1CC1` registered a TGI of over 100 µM.

`Cc1c2ccncc2cc2c1sc1ccncc12`: the TGI is 10.5 µM.

Turning to `CCOC(=O)c1nc2ccc(C(F)(F)F)cc2nc1NCc1ccc(Cl)c(Cl)c1`, the TGI came to 75.9 µM.

In the case of `NCCCNCCCNCCCN`, the TGI is over 100 µM.

For the compound `Cn1nc(Cc2ccc(Cl)cc2)n(N)c1=O`, the TGI was over 100 µM.

For the compound `CCc1nnc(CC)n1NCCCC(=O)O`, the TGI was over 100 µM.

The compound `CCOC(=O)NC(C(F)(F)F)(C(F)(F)F)P(=O)(OC(C)C)OC(C)C` returned a TGI of over 100 µM.

On to `C/C(=N\N)C(CN(C)C)C(c1ccccc1)c1c(O)c2ccccc2oc1=O` (stereo not given), for which the TGI is over 100 µM.

Turning to `CSC1=N[C@H](c2ccccc2)CS1`, the TGI was over 100 µM.

`CN(C)c1ccc(-c2c(C#N)c(N)[nH]c(=S)c2C#N)cc1` displayed a TGI of over 100 µM.

Another assay relates to SF-268 CNS. Put plainly: growth of human tumour cells (NCI), 48 h.
In turn, `CC(C)OP(=O)(OC(C)C)C(C(C)C)N(C)/C(N)=N\C1=NC(C(F)(F)F)(C(F)(F)F)N=C(C(C(F)(F)F)C(F)(F)F)O1` (stereo not given) returned a TGI of 12 µM.

Consider `O=c1c2cc(S(=O)(=O)Nc3ccccc3Cl)ccc2ncn1NS(=O)(=O)c1ccc(Br)cc1`, for which the TGI is over 37.5 µM.

For `CC1=C(C(=O)Nc2cccc3c2C(=O)NC3=O)CC(C(=O)Nc2cccc3c2C(=O)NC3=O)=C(C)N1`, the TGI was over 100 µM.

For `CC1C2CC(CC(=O)N2)C1(C)C` (stereo not given), the TGI was over 100 µM.

As to `COc1cc(S(=O)(=O)Nc2ccc(-c3csc(N4C(=O)CSC4c4cccs4)n3)cc2)ccc1Cl` (stereo not given), the TGI was 40.5 µM.

In turn, `C[C@H]1[C@H](C)N(Cc2ccccc2)P(=O)(C(O)/C=C/c2ccccc2)N1Cc1ccccc1` (stereo not given in full) showed a TGI of over 25 µM.

As to `NCCCCNCCCN1CC1`, the TGI was over 100 µM.

`Cc1c2ccncc2cc2c1sc1ccncc12` had a TGI of 14.4 µM.

Take `CCOC(=O)c1nc2ccc(C(F)(F)F)cc2nc1NCc1ccc(Cl)c(Cl)c1`: the TGI is over 100 µM.

For `NCCCNCCCNCCCN`, the TGI is 8.96 µM.

`Cn1nc(Cc2ccc(Cl)cc2)n(N)c1=O`: the TGI is over 100 µM.

In the case of `CCc1nnc(CC)n1NCCCC(=O)O`, the TGI was over 100 µM.

`CCOC(=O)NC(C(F)(F)F)(C(F)(F)F)P(=O)(OC(C)C)OC(C)C` had a TGI of over 100 µM.

Compound `C/C(=N\N)C(CN(C)C)C(c1ccccc1)c1c(O)c2ccccc2oc1=O` (stereo not given) registered a TGI of over 100 µM.

For `CN(C)c1ccc(-c2c(C#N)c(N)[nH]c(=S)c2C#N)cc1`, the TGI was over 100 µM.

Another assay has as its system SK-MEL-5 melanoma. Briefly: growth of human tumour cells (NCI), 48 h.
Take `CC1=C(C(=O)Nc2cccc3c2C(=O)NC3=O)CC(C(=O)Nc2cccc3c2C(=O)NC3=O)=C(C)N1`: the TGI is over 100 µM.

`CC1C2CC(CC(=O)N2)C1(C)C` (stereo not given): the TGI is over 100 µM.

The compound `COc1cc(S(=O)(=O)Nc2ccc(-c3csc(N4C(=O)CSC4c4cccs4)n3)cc2)ccc1Cl` (stereo not given) registered a TGI of over 100 µM.

`C[C@H]1[C@H](C)N(Cc2ccccc2)P(=O)(C(O)/C=C/c2ccccc2)N1Cc1ccccc1` (stereo not given in full) had a TGI of 8.7 µM.

Take `NCCCCNCCCN1CC1`: the TGI amounted to 9.67 µM.

As for `Cc1c2ccncc2cc2c1sc1ccncc12`, the TGI turned out to be 5.78 µM.

`CCOC(=O)c1nc2ccc(C(F)(F)F)cc2nc1NCc1ccc(Cl)c(Cl)c1` had a TGI of over 100 µM.

For the compound `NCCCNCCCNCCCN`, the TGI is over 100 µM.

Regarding `Cn1nc(Cc2ccc(Cl)cc2)n(N)c1=O`, the TGI is over 100 µM.

In turn, `CCc1nnc(CC)n1NCCCC(=O)O` had a TGI of over 100 µM.

In the case of `CCOC(=O)NC(C(F)(F)F)(C(F)(F)F)P(=O)(OC(C)C)OC(C)C`, the TGI is over 100 µM.

With `C/C(=N\N)C(CN(C)C)C(c1ccccc1)c1c(O)c2ccccc2oc1=O` (stereo not given), the TGI is over 100 µM.

In turn, `CSC1=N[C@H](c2ccccc2)CS1` had a TGI of over 100 µM.
